Test results: patent publication US8410309B2, “Phenoxy carboxylic acid compounds and compositions for delivering active agents” (Emisphere Technologies, Inc., priority 1999, dated 2013)
“And” between values parts separate entries of the source, which are not always exact repeats. Equal values may be shown once. Marks after values point to notes of the source that are not given here.

Experiments:
[1] = Interferon oral delivery, serum IFN by immunoassay; format: in vivo, Sprague-Dawley rats; conditions: rats, 1 ml/kg
Experimental: Dosing solutions of delivery agent compound and human interferon (IFN) were prepared in deionized water. […] This mixture was vortexed and placed in a sonicator (about 37° C.). The pH was adjusted to about 7.0 to 8.5 with aqueous NaOH. The mixture was vortexed to produce a uniform suspension or solution, also using sonication and heat if necessary.
(§1) The typical dosing and sampling protocols were as follows.
Serum IFN concentrations were quantified using Cytoscreen Immunoassay Kit for human IFN-alpha (catalog # KHC4012 from Biosource International, Camarillo, Calif.). Previous studies indicated baseline values of about zero.

[2] = Insulin oral delivery, serum human insulin by ELISA; conditions: rats, 1 ml/kg
Experimental: Oral dosing (PO) compositions of delivery agent compound and human zinc insulin (minimum 26 IU/mg available from Calbiochem—Novabiochem Corp, La Jolla, Calif.) were prepared in deionized water. […] The pH was adjusted to about 7 to 8.5 with NaOH or HCl. […] The final delivery agent compound dose, insulin dose and dose volume amounts are listed below in Table 8.
as §1
Serum insulin levels were determined with an Insulin ELISA Test Kit (Kit # DSL-10-1600 from Diagnostic Systems Laboratories, Inc., Webster, Tex.), modifying the standard protocol in order to optimize the sensitivity and linear range of the standard curve for the volumes and concentrations of the samples used in the present protocol. […] The five values for each time point were averaged and the results plotted as serum insulin concentration versus time.

[3] = Cromolyn oral delivery, serum cromolyn by HPLC; format: in vivo, Sprague-Dawley rats; conditions: rats, delivery agent compound dose 200 mg/kg, cromolyn dose 25 mg/kg, in µg/mL (unit assumed)
Experimental: Dosing solutions containing a delivery agent compound (prepared as in Example 1) and cromolyn, disodium salt (cromolyn)(from Sigma Chemical Co., St. Louis, Mo.) were prepared in deionized water. […] This mixture was vortexed and placed in a sonicator (about 37° C.). The pH was adjusted to about 7-7.5 with aqueous NaOH. […] The mixture was vortexed to produce a uniform solution, also using sonication and heat if necessary. The delivery agent compound solution was mixed with cromolyn from a stock solution (175 mg cromolyn/ml in deionized water, pH adjusted, if necessary, with NaOH or HCl to about 7.0, stock solution stored frozen wrapped in foil, then thawed and heated to about 30° C. before using). The mixture was vortexed to produce a uniform solution, also using sonication and heat if necessary. The pH was adjusted to about 7-8 with aqueous NaOH. The solution was then diluted with water to the desired volume (usually 2.0 ml) and concentration and stored wrapped in foil before use.
as §1
Blood samples were collected via the tail artery, typically at 0.25, 0.5, 1.0 and 1.5 hours after dosing. Serum cromolyn concentrations were measured by HPLC. Samples were prepared as follows: 100 μl serum was combined with 100 μl 3N HCl and 300 μl ethyl acetate in an eppendorf tube. The tube was vortexed for 10 minutes and then centrifuged for 10 minutes at 10,000 rpm. 200 μl ethyl acetate layer was transferred to an eppendorf tube containing 67 μl 0.1 M phosphate buffer. The tube was vortexed for 10 minutes and then centrifuged for 10 minutes at 10,000 rpm. […] Previous studies indicated baseline values of about zero.

[4] = Daptomycin oral delivery, plasma daptomycin by HPLC; format: in vivo, Sprague-Dawley rats; conditions: rats, delivery agent compound dose 200 mg/kg, daptomycin dose 50 mg/kg, volume dose 1 mL/kg
Experimental: Dosing solutions containing a delivery agent compound and daptomycin (Cubist Pharmaceuticals, Cambridge, Mass.) were prepared in 0.9% normal saline. […] This mixture was vortexed and placed in a sonicator (about 37° C.). The pH was adjusted to about 7.0-7.5 with aqueous HCl or NaOH. […] The mixture was vortexed to produce a uniform solution, also using sonication if necessary. The delivery agent compound solution was mixed with daptomycin from a stock solution (200 mg daptomycin/mL in 0.9% normal saline and the pH adjusted, if necessary, to between 6.0-7.0 with NaOH or HCl). The stock solution was stored frozen (−20° C.) wrapped in foil, then thawed and warmed gradually to about 25° C. before using. The delivery agent-daptomycin mixture was vortexed at low speed to produce a uniform solution. The pH was adjusted to about 7.0-7.5 with aqueous NaOH. The solution was then diluted with 0.9% normal saline to the desired volume (usually 2.0 ml) and concentration and stored wrapped in foil before use.
as §1
Heparinized rat blood samples were collected via the ventral tail artery, typically at 0.25, 0.5, 0.75, 1.0, 2.0, and 4.0 hours after dosing, and stored on ice. Blood samples were then spun (centrifuged) at 11,500 rpm for 4 minutes at 4° C. to obtain the plasma (supernatant), which was stored at −70° C. The plasma daptomycin concentrations were measured by isocratic reversed phase HPLC, keeping samples at 4° C. during analysis. Blank plasma studies show baseline values of zero.
Daptomycin blood concentrations results from the individual animals in each dosage group were averaged for each time point.

[5] = Salmon calcitonin (sCT) oral delivery, serum sCT by EIA; conditions: rats, delivery agent compound dose 150 mg/kg, sCT dose 30 μg/kg
Experimental: Oral dosing (PO) compositions of a delivery agent compound and salmon calcitonin (sCT) in deionized water were prepared as described in Table 2 below. […] Either the sodium salt of the compound was used or the free acid was converted to the sodium salt by stirring the resultant solution and adding one equivalent of sodium hydroxide (1.0 N) and diluting with water. The solution was vortexed, then heated (about 37° C.) and sonicated. The pH was adjusted to about 7 (about 6.5 to 8.5) with NaOH or HCl. 90 μg sCT from a sCT stock solution (2 mg/ml made by adding 10001 pH 4 phosphate buffer to sCT and allowing it to go into solution by sitting for about 10-20 minutes and periodically gently inverting) was added to the solution.
The typical dosing and sampling protocols were as follows. Male Sprague-Dawley rats weighing between 200-250 g were fasted for 24 hours and administered ketamine (44 mg/kg) and chlorpromazine (1.5 mg/kg) 15 minutes prior to dosing and again as needed to maintain anesthesia. A dosing group of five animals was administered one of the dosing solutions. For oral dosing, an 11 cm Rusch 8 French catheter was adapted to a 1 ml syringe with a pipette tip. The syringe was filled with dosing solution by drawing the solution through the catheter, which was then wiped dry. The catheter was placed down the esophagus leaving 1 cm of tubing past the incisors. Solution was administered by pressing the syringe plunger.
Blood samples were collected serially from the tail artery, typically at time=0, 10, 20, 30, 60 and 90 minutes. […] Numbers were adjusted according to baseline values obtained at time=0. The results from the animals in each dosing group were averaged for each time point.

[6] = Heparin oral/intracolonic delivery, clotting time by activated partial thromboplastin time (APTT); format: in vivo, Sprague-Dawley rats; conditions: rats, baseline about 20 seconds
Experimental: Oral gavage (PO) and/or intracolonic (IC) dosing solutions containing a delivery agent compound and heparin sodium USP were prepared in 25% aqueous propylene glycol. […] This dry mixture was dissolved in 25% v/v aqueous propylene glycol, vortexed, and placed in a sonicator (about 37° C.). The pH was adjusted to about 7 (6.5 to 8.5) with aqueous NaOH (2N). The dosing solution was sonicated to produce a clear solution. The final volume was adjusted to about 3.0 ml.
(§2) The typical dosing and sampling protocols were as follows. […] The dosing solution was expressed slowly into the colon by pressing the syringe plunger.
Citrated blood samples were collected by cardiac puncture following the administration of ketamine (88 mg/kg), typically at 0.25, 0.5, 1.0 and 1.5 hours after dosing. Heparin absorption was verified by an increase in clotting time measured by the activated partial thromboplastin time (APTT) according to the method of Henry, J. B., Clinical Diagnosis and Management by Laboratory Methods, Philadelphia, Pa., W.B. Saunders (1979). Previous studies indicated baseline values of about 20 seconds.

[7] = Low molecular weight heparin (LMWH) oral/intracolonic delivery, plasma LMWH by anti-Factor Xa assay; format: in vivo, Sprague-Dawley rats; conditions: IC, rats; delivery agent compound 50 mg/kg, LMWH 750 IU/kg, 1 ml/kg
Experimental: Oral dosing (PO) and/or intracolonic (IC) compositions containing a delivery agent compound and low molecular weight heparin (LMWH) were prepared in 25% aqueous propylene glycol. […] Typically, the delivery agent compound and LMWH (Parnaparin, 91 IU/mg average molecular weight about 5,000, available from Opocrin, Modena, Italy) (typically 90-105 IU/mg, average molecular weight about 5,000) were mixed by vortex as dry powders. This dry mixture was dissolved in 25% v/v aqueous propylene glycol, vortexed, and placed in a sonicator (37° C.) to produce a clear solution. The pH was adjusted to about 7 (6.5-8.5) with 2N aqueous NaOH. The dosing solution was sonicated to produce a clear solution. The final volume was adjusted to 3.0 ml.
as §2
Citrated blood samples were collected by cardiac puncture following the administration of ketamine (88 mg/kg), typically at 0.5, 1.0, 2.0, 3.0 and 4.0 hours after dosing. LMWH absorption was verified by an increase in plasma LMWH measured by the anti-Factor Xa assay CHROMOSTRATE™ Heparin anti-Xa assay (available from Organon Teknika Corporation, Durham, N.C.). […] The peak of these mean plasma LMWH concentrations is reported below in Table 5.

[8] = Recombinant human growth hormone (rhGH) oral delivery, serum rhGH by immunoassay; conditions: oral gavage, rats, delivery agent compound 200 mg/kg, rhGH 3 mg/kg
Experimental: Oral gavage (PO) dosing solutions of delivery agent compound and rhGH in phosphate buffer were prepared by mixing. A solution of the delivery agent compound was made either with the sodium salt of the delivery agent compound or by converting the free acid to its sodium salt.
The typical dosing and sampling protocols were as follows. Male Sprague-Dawley rats weighing 200-250 g were fasted for 24 hours and administered ketamine (44 mg/kg) and chlorpromazine (1.5 mg/kg) 15 minutes prior to dosing and again as needed to maintain anesthesia. A dosing group of five animals was administered one of the dosing solutions. An 11 cm Rusch 8 French catheter was adapted to a 1 ml syringe with a pipette tip. The syringe was filled with dosing solution by drawing the solution through the catheter, which was then wiped dry. The catheter was placed down the esophagus leaving 1 cm of tubing past the incisors. The dosing solution was administered by pressing the syringe plunger.
Blood samples were collected serially from the tail artery typically at time=15, 30, 45, 60 and 90 minutes. The five samples from each time period were pooled (except for those samples for which standard deviation (SD) and standard error (SE) are reported). Serum rHGH concentrations were quantified by an rHGH immunoassay test kit (Kit # K1F4015 from Genzyme Corporation Inc., Cambridge, Mass.).

[9] = Insulin pulmonary delivery, serum insulin by ELISA, ratio to insulin-alone control; format: in vivo, Sprague-Dawley rats; conditions: pulmonary, rats; volume 0.4 ml/kg, delivery agent compound 0.03 mg/kg, insulin 0.3 mg/kg (so in the source)
Experimental: Dosing compositions of delivery agent compound and human insulin in water were prepared. Typically, to 1.5 mg of delivery agent compound was added deionized water to bring the volume to 1.0 ml, and the solution was vortexed. […] The pH was adjusted to between about 7.0 to 8.5 with NaOH or HCl. […] The final delivery agent compound dose, insulin dose and volume dose amounts are listed below in Table 9.
The typical dosing and sampling protocols were as follows. […] A control group of five animals was dosed insulin alone. A tracheal instillator for rodents, equipped with light (available from Penn Century, Inc., Pittsburgh, Pa.) was filled with dosing solution and inserted down the throat until the needle went into the trachea (confirmed visually). The dosing solution was administered by pressing the plunger.
Blood samples from each animal were collected serially from the tail artery, typically at 5, 15, 30, 60 and 120 minutes after dosing. […] The ratio of the area under the curve (AUC) for the test group versus that of the control group is reported below. The ratio of the maximum serum insulin concentration (Cmax) for the test group versus that of the control group is also reported below.

[10] = Parathyroid hormone (PTH 1-34) oral/intracolonic delivery, serum PTH by radioimmunoassay; conditions: rats, oral (PO); delivery agent compound dose 100 mg/kg, PTH dose 200 μg/kg, volume dose 1 ml/kg
Experimental: Oral gavage (PO) and/or intracolonic (IC) dosing solutions of delivery agent compound and human parathyroid hormone residues 1-34 (PTH) in deionized water were prepared. A solution of the compound was made either with the sodium salt of the delivery agent compound or by converting the free acid to its sodium salt.
The typical dosing and sampling protocols were as follows. Male Sprague-Dawley rats weighing between 200-250 g were fasted for 24 hours and administered ketamine (44 mg/kg) and chlorpromazine (1.5 mg/kg) 15 minutes prior to dosing and again as needed to maintain anesthesia. A dosing group of five animals was administered one of the dosing solutions. For oral gavage (PO), an 11 cm Rusch 8 French catheter was adapted to a 1 ml syringe with a pipette tip. The syringe was filled with dosing solution by drawing the solution through the catheter, which was then wiped dry. The catheter was placed down the esophagus leaving 1 cm of tubing past the incisors. The dosing solution was administered by pressing the syringe plunger. For intracolonic (IC) dosing, a 7.5 cm Rusch catheter tube (French 8 or 6) was adapted to a syringe with an Eppendorf pipette tip. The syringe was filled with the dosing solution by drawing the solution through the catheter tube. The catheter tube was wiped dry. K-Y jelly was applied to the tip, avoiding contact with the eye of the tube, and the tube was inserted into the colon through the anus until the tube was no longer visible. The dosing solution was injected by pressing the syringe plunger, and the tube was removed.
Previous studies indicated baseline values of about zero. Results from the animals in each group were averaged for each time point.

[11] = delivery agent compound 200 mg/kg, IFN 1 mg/kg
[12] = IC (intracolonic), delivery agent compound 50 mg/kg, heparin 25 mg/kg, volume dose 1 ml

O=C(O)CCCCCOc1ccccc1 [Compound 15]
Mean Peak Serum [IFN] ± SD [1, 11]: 6.0324 ± 2.8 ng/mL | Mean Peak Serum [INS] ± SD ([2]; delivery agent compound 100 mg/kg, insulin 3 mg/kg): 1332.2 ± 1906.4 μU/ml | Mean Peak serum [cromolyn] ± SD (SE) ([3]; volume dose 1 ml/kg): 0.38 ± 0.15 | Mean plasma Cmax [daptomycin] ± SD [4]: 9.5 ± 5.49 µg/mL | Mean Peak Serum sCT (pg/ml ± SD) (SE) ([5]; dose volume 2 (ml)): 116 ± 88 pg/mL

CC(=O)c1cc(O)ccc1OCCCCCCCC(=O)O [Compound 57, (4-hydroxy-2-acetylphenyl)-8-oxyoctanoic acid]
Mean Peak Serum [INS] ± SD ([2]; delivery agent compound 200 mg/kg, insulin 3 mg/kg): 3322 ± 2721 μU/ml | Mean plasma Cmax [daptomycin] ± SD [4]: 8.59 ± 4.21 µg/mL

CC(=O)c1ccccc1OCCCCCC(=O)O [Compound 11]
Mean Peak APTT ± SD [6, 12]: 39.53 ± 8.25 s | Mean Peak Plasma LMWH Concentration ± SD [7]: 0.91 ± 0.414 IU/ml | Mean plasma Cmax [daptomycin] ± SD [4]: 13.27 ± 13.43 µg/mL | Mean Peak Serum sCT (pg/ml ± SD) (SE) ([5]; dose volume 1 (ml)): 526 ± 415 pg/mL | Mean Peak Serum [rhGH] ([8]; volume dose 1 ml): 35.4 ng/mL

O=C(O)CCCOc1ccccc1 [Compound 14]
Mean plasma Cmax [daptomycin] ± SD [4]: 14.2 ± 24.84 µg/mL | Mean Peak Serum [rhGH] ([8]; volume dose 1 ml): 19.8 ng/mL

O=Cc1ccccc1OCCCCCCCC(=O)O [Compound 61]
Mean Peak Serum [INS] ± SD ([2]; delivery agent compound 200 mg/kg, insulin 0.5 mg/kg): 58.99 ± 27.15 μU/ml | Mean Peak serum [cromolyn] ± SD (SE) ([3]; volume dose 1 ml/kg): 0.54 ± 0.39 and 0.57 ± 0.36 | Mean Peak serum [cromolyn] ± SD (SE) ([3]; volume dose 2 ml/kg): 0.39 ± 0.21

O=C(O)CCCCCCCOc1cccc(O)c1 [Compound 43]
Mean Peak Serum [IFN] ± SD [1, 11]: 1 ± 2.1 ng/mL and 1.206 ng/mL | Mean Ratio of AUC for insulin + compound versus AUC for insulin alone [9]: 1.44 | AUC (Total AUC(0→∞)) of daptomycin [4]: 4555* μg-min/mL and 2895* μg-min/mL and 2820* μg-min/mL | Mean Peak Serum sCT (pg/ml ± SD) (SE) ([5]; dose volume 1 (ml)): 50 ± 71 pg/mL

O=C(O)c1ccc(COc2ccccc2O)cc1 [Compound 2]
Mean Peak APTT ± SD [6, 12]: 48.788 ± 32.79 s | Mean Peak Plasma LMWH Concentration ± SD [7]: 1.038 ± 0.338 IU/ml | Mean plasma Cmax [daptomycin] ± SD [4]: 5.07 ± 0.61 µg/mL | Mean Peak Serum sCT (pg/ml ± SD) (SE) ([5]; dose volume 1 (ml), 150 mg/kg): 628 ± 221 pg/mL and 449 ± 550 pg/mL and 320 ± 348 pg/mL

CC(C)NC(=O)c1ccccc1OCCCCCCCC(=O)O [Compound 34]
Mean Peak Serum sCT (pg/ml ± SD) (SE) ([5]; dose volume 1 (ml), 150 mg/kg): 103 ± 72 pg/mL and 137 ± 178 pg/mL | Mean Peak Serum [PTH] (pg/mL) ± SD [10]: 538 ± 328 pg/mL

O=C(O)CCCCCOc1ccccc1O [Compound 5]
Mean Peak APTT ± SD ([6]; PO (oral gavage), delivery agent compound 300 mg/kg, heparin 100 mg/kg, volume dose 3 ml): 135.7 ± 17.3 s | Mean Peak Serum [IFN] ± SD ([1]; delivery agent compound 50 mg/kg, IFN 0.5 mg/kg): 1.54 ± 0.26 ng/mL and 2.1 ± 0.95 ng/mL | Mean Peak serum [cromolyn] ± SD (SE) ([3]; volume dose 1 ml/kg): 0.63 ± 0.47 | Mean plasma Cmax [daptomycin] ± SD [4]: 7.082 ± 3.86 µg/mL | Mean Peak Serum sCT (pg/ml ± SD) (SE) ([5]; dose volume 1 (ml)): 349 ± 348 pg/mL

O=C(O)CCCCCCCOc1ccc(O)cc1 [Compound 47, (4-hydroxyphenyl)-8-oxyoctanoic acid]
Mean Peak APTT ± SD [6, 12]: 370.3 ± 97.8 s | Mean Peak Serum [IFN] ± SD [1, 11]: 1.1 ± 0.85 ng/mL | Mean Ratio of AUC for insulin + compound versus AUC for insulin alone [9]: 0.63 | Mean Peak serum [cromolyn] ± SD (SE) ([3]; volume dose 1 ml/kg): 0.56 ± 0.39 | Mean Peak serum [cromolyn] ± SD (SE) ([3]; volume dose 2 ml/kg): 0.55 ± 0.12 | Mean Peak Serum sCT (pg/ml ± SD) (SE) ([5]; dose volume 1 (ml)): 62 ± 99 pg/mL | Mean Peak Serum [rhGH] ([8]; volume dose 2 ml): 9.9 ± 22.1 ng/mL
